# Test results: patent publication US20140073700A1, “[…] ACID DERIVATIVES AND METHODS OF USE THEREOF” (AbbVie Inc., priority 2012, published 2014)
# System: IFNγ-Induced NO Production in RAW 264.7 cells
# Assay: Nitric Oxide Suppression Assay (suppression of IFNγ-induced NO production)
# Type: cell-based
# Settings: RAW264.7; RAW 264.7 mouse macrophage cells, 20 ng/mL interferon gamma, Griess detection; single curve fit to mean data of n=2-3
# Protocol: RAW 264.7, a mouse macrophage cell line, was obtained from American Type Culture Collection (Manassas Va.) and maintained in the log phase of growth in Dulbecco's Modified Eagle's Medium (DMEM), 10% heat inactivated fetal calf serum and 100 units/mL antibiotic-antimycotic (AA). Cells were cultured and maintained in a humidified incubator at 37° C. under 5% CO2 and 95% air. Cells were sub-cultured every 3 days by scraping and were not used beyond passage 20. All cell culture supplies were obtained from Life Technologies (Grand Island, N.Y.).
# RAW 264.7 cells were plated 1 day in advance of experiment at a concentration of 80,000 cells/well onto CellBIND® 96 well plates (Corning, N.Y.) in a total volume of 100 μL. The next day, pre-treat cells with compounds (from 3 μM to 0.3 nM serially diluted in a 10 point curve) from a 10× stock by adding 10 μL per well in complete DMEM media containing 10% fetal calf serum. The plates were centrifuged for 3 minutes at 400×g at room temperature followed by 2 hour incubation at 37° C. The cells were then incubated overnight at 37° C. with 10 μL of the insult, interferon gamma (R&D Systems, Minneapolis, Minn.), from a 10× stock for a final concentration of 20 ng/mL. The plates were centrifuged for 3 minutes at 400×g at room temperature followed by 18 hour incubation at 37° C. The following day, transfer 50 μL cell culture supernatant from each well into a clear bottom 96 well plate and follow the instructions from Promega's Griess Detection Kit #G2930 (Madison, Wis.) which involves the addition of 50 μL of the provided sulfanilamide solution for a 5-10 minute incubation at room temperature. Next add 50 μL of the provided N-1-napthylethylenediamine dihydrochloride (NED) solution for a 5-10 minute incubation at room temperature and protected from light. If any air bubbles were introduced into the well, the plates need to be centrifuged for 5 minutes at 400×g at room temperature to avoid interference with absorbance readings. The plates were read for absorbance within 30 minutes with a filter between 520 nm and 550 nm.
# For the ability of compounds to suppress the increase in nitric oxide release, the percent maximal intensity of nitric oxide detected in each well was normalized to that induced by the peak value for 20 ng/mL of interferon gamma alone and plotted against the compound concentration to calculate IC50 values and to control for plate-to-plate variability. Concentration-response data were analyzed using GraphPad Prism (San Diego, Calif.); the IC50 values were derived from a single curve fit to the mean data of n=2-3, in duplicates.
# All compounds were dissolved in dimethyl sulfoxide at 10 mM stock solutions and tested at a concentration that the dimethyl sulfoxide levels never exceeded 1%.
row,Compound,IC50
1,"CC1(C)C(=O)C(C#N)=C[C@]2(C)C3=CC(=O)[C@]4(O)[C@@H]5C[C@@](C)(C(=O)NCc6cccnn6)CC[C@]5(C)CC[C@@]4(C)[C@]3(C)CC[C@@H]12 [Example 8, (2S,4aS,6aS,6bR,8aR,12aS,14aS,14bR)-11-cyano-14a-hydroxy-2,4a,6a,6b,9,9,12a-heptamethyl-10,14-dioxo-N-(pyridazin-3-ylmethyl)-1,2,3,4,4a,5,6,6a,6b,7,8,8a,9,10,12a,14,14a,14b-octadecahydropicene-2-carboxamide]",27.9 nM
2,"Cn1cc(CNC(=O)[C@@]2(C)CC[C@]3(C)CC[C@@]4(C)[C@]5(C)CC[C@H]6C(C)(C)C(=O)C(C#N)=C[C@]6(C)C5=CC(=O)[C@]4(O)[C@@H]3C2)cn1 [Example 9, (2S,4aS,6aS,6bR,8aR,12aS,14aS,14bR)-11-cyano-14a-hydroxy-2,4a,6a,6b,9,9,12a-heptamethyl-N-[(1-methyl-1H-pyrazol-4-yl)methyl]-10,14-dioxo-1,2,3,4,4a,5,6,6a,6b,7,8,8a,9,10,12a,14,14a,14b-octadecahydropicene-2-carboxamide]",12.8 nM
3,"CC1(C)C(=O)C(C#N)=C[C@]2(C)C3=CC(=O)[C@]4(O)[C@@H]5C[C@@](C)(C(=O)NCCN6CCOCC6)CC[C@]5(C)CC[C@@]4(C)[C@]3(C)CC[C@@H]12 [Example 10, (2S,4aS,6aS,6bR,8aR,12aS,14aS,14bR)-11-cyano-14a-hydroxy-2,4a,6a,6b,9,9,12a-heptamethyl-N-[2-(morpholin-4-yl)ethyl]-10,14-dioxo-1,2,3,4,4a,5,6,6a,6b,7,8,8a,9,10,12a,14,14a,14b-octadecahydropicene-2-carboxamide]",23.9 nM
4,"Cc1ccccc1CNC(=O)[C@@]1(C)CC[C@]2(C)CC[C@@]3(C)[C@]4(C)CC[C@H]5C(C)(C)C(=O)C(C#N)=C[C@]5(C)C4=CC(=O)[C@]3(O)[C@@H]2C1 [Example 11, (2S,4aS,6aS,6bR,8aR,12aS,14aS,14bR)-11-cyano-14a-hydroxy-2,4a,6a,6b,9,9,12a-heptamethyl-N-(2-methylbenzyl)-10,14-dioxo-1,2,3,4,4a,5,6,6a,6b,7,8,8a,9,10,12a,14,14a,14b-octadecahydropicene-2-carboxamide]",140 nM
5,"Cn1ccc(CNC(=O)[C@@]2(C)CC[C@]3(C)CC[C@@]4(C)[C@]5(C)CC[C@H]6C(C)(C)C(=O)C(C#N)=C[C@]6(C)C5=CC(=O)[C@]4(O)[C@@H]3C2)n1 [Example 12, (2S,4aS,6aS,6bR,8aR,12aS,14aS,14bR)-11-cyano-14a-hydroxy-2,4a,6a,6b,9,9,12a-heptamethyl-N-[(1-methyl-1H-pyrazol-3-yl)methyl]-10,14-dioxo-1,2,3,4,4a,5,6,6a,6b,7,8,8a,9,10,12a,14,14a,14b-octadecahydropicene-2-carboxamide]",14.1 nM
6,"COc1ccccc1CNC(=O)[C@@]1(C)CC[C@]2(C)CC[C@@]3(C)[C@]4(C)CC[C@H]5C(C)(C)C(=O)C(C#N)=C[C@]5(C)C4=CC(=O)[C@]3(O)[C@@H]2C1 [Example 13, (2S,4aS,6aS,6bR,8aR,12aS,14aS,14bR)-11-cyano-14a-hydroxy-N-(2-methoxybenzyl)-2,4a,6a,6b,9,9,12a-heptamethyl-10,14-dioxo-1,2,3,4,4a,5,6,6a,6b,7,8,8a,9,10,12a,14,14a,14b-octadecahydropicene-2-carboxamide]",60.7 nM
7,"CCC(O)CNC(=O)[C@@]1(C)CC[C@]2(C)CC[C@@]3(C)[C@]4(C)CC[C@H]5C(C)(C)C(=O)C(C#N)=C[C@]5(C)C4=CC(=O)[C@]3(O)[C@@H]2C1 (stereo partly drawn) [Example 14, (2S,4aS,6aS,6bR,8aR,12aS,14aS,14bR)-11-cyano-14a-hydroxy-N-(2-hydroxybutyl)-2,4a,6a,6b,9,9,12a-heptamethyl-10,14-dioxo-1,2,3,4,4a,5,6,6a,6b,7,8,8a,9,10,12a,14,14a,14b-octadecahydropicene-2-carboxamide]",53.7 nM
8,"CC1(C)C(=O)C(C#N)=C[C@]2(C)C3=CC(=O)[C@]4(O)[C@@H]5C[C@@](C)(C(=O)n6ccnc6)CC[C@]5(C)CC[C@@]4(C)[C@]3(C)CC[C@@H]12 [Example 15, (4aR,6aR,6bS,8aS,11S,12aR,12bS,14bS)-12b-hydroxy-11-(1H-imidazol-1-ylcarbonyl)-4,4,6a,6b,8a,11,14b-heptamethyl-3,13-dioxo-3,4,4a,5,6,6a,6b,7,8,8a,9,10,11,12,12a,12b,13,14b-octadecahydropicene-2-carbonitrile]",269 nM
9,"COCCNC(=O)[C@@]1(C)CC[C@]2(C)CC[C@@]3(C)[C@]4(C)CC[C@H]5C(C)(C)C(=O)C(C#N)=C[C@]5(C)C4=CC(=O)[C@]3(O)[C@@H]2C1 [Example 16, (2S,4aS,6aS,6bR,8aR,12aS,14aS,14bR)-11-cyano-14a-hydroxy-N-(2-methoxyethyl)-2,4a,6a,6b,9,9,12a-heptamethyl-10,14-dioxo-1,2,3,4,4a,5,6,6a,6b,7,8,8a,9,10,12a,14,14a,14b-octadecahydropicene-2-carboxamide]",8.6 nM
10,"CC(C)CCNC(=O)[C@@]1(C)CC[C@]2(C)CC[C@@]3(C)[C@]4(C)CC[C@H]5C(C)(C)C(=O)C(C#N)=C[C@]5(C)C4=CC(=O)[C@]3(O)[C@@H]2C1 [Example 17, (2S,4aS,6aS,6bR,8aR,12aS,14aS,14bR)-11-cyano-14a-hydroxy-2,4a,6a,6b,9,9,12a-heptamethyl-N-(3-methylbutyl)-10,14-dioxo-1,2,3,4,4a,5,6,6a,6b,7,8,8a,9,10,12a,14,14a,14b-octadecahydropicene-2-carboxamide]",24 nM
11,"CC1(C)C(=O)C(C#N)=C[C@]2(C)C3=CC(=O)[C@]4(O)[C@@H]5C[C@@](C)(C(=O)NC6CCOCC6)CC[C@]5(C)CC[C@@]4(C)[C@]3(C)CC[C@@H]12 [Example 18, (2S,4aS,6aS,6bR,8aR,12aS,14aS,14bR)-11-cyano-14a-hydroxy-2,4a,6a,6b,9,9,12a-heptamethyl-10,14-dioxo-N-(tetrahydro-2H-pyran-4-yl)-1,2,3,4,4a,5,6,6a,6b,7,8,8a,9,10,12a,14,14a,14b-octadecahydropicene-2-carboxamide]",17.1 nM
12,"CC(O)CNC(=O)[C@@]1(C)CC[C@]2(C)CC[C@@]3(C)[C@]4(C)CC[C@H]5C(C)(C)C(=O)C(C#N)=C[C@]5(C)C4=CC(=O)[C@]3(O)[C@@H]2C1 (stereo partly drawn) [Example 19, (2S,4aS,6aS,6bR,8aR,12aS,14aS,14bR)-11-cyano-14a-hydroxy-N-(2-hydroxypropyl)-2,4a,6a,6b,9,9,12a-heptamethyl-10,14-dioxo-1,2,3,4,4a,5,6,6a,6b,7,8,8a,9,10,12a,14,14a,14b-octadecahydropicene-2-carboxamide]",67.9 nM
13,"C[C@H](NC(=O)[C@@]1(C)CC[C@]2(C)CC[C@@]3(C)[C@]4(C)CC[C@H]5C(C)(C)C(=O)C(C#N)=C[C@]5(C)C4=CC(=O)[C@]3(O)[C@@H]2C1)c1ccccc1 [Example 20, (2S,4aS,6aS,6bR,8aR,12aS,14aS,14bR)-11-cyano-14a-hydroxy-2,4a,6a,6b,9,9,12a-heptamethyl-10,14-dioxo-N-[(1S)-1-phenylethyl]-1,2,3,4,4a,5,6,6a,6b,7,8,8a,9,10,12a,14,14a,14b-octadecahydropicene-2-carboxamide]",38.6 nM
14,"CC1(C)C(=O)C(C#N)=C[C@]2(C)C3=CC(=O)[C@]4(O)[C@@H]5C[C@@](C)(C(=O)NC6CCCCC6)CC[C@]5(C)CC[C@@]4(C)[C@]3(C)CC[C@@H]12 [Example 21, (2S,4aS,6aS,6bR,8aR,12aS,14aS,14bR)-11-cyano-N-cyclohexyl-14a-hydroxy-2,4a,6a,6b,9,9,12a-heptamethyl-10,14-dioxo-1,2,3,4,4a,5,6,6a,6b,7,8,8a,9,10,12a,14,14a,14b-octadecahydropicene-2-carboxamide]",9.7 nM
15,"CC1(C)C(=O)C(C#N)=C[C@]2(C)C3=CC(=O)[C@]4(O)[C@@H]5C[C@@](C)(C(=O)NCc6ccccc6)CC[C@]5(C)CC[C@@]4(C)[C@]3(C)CC[C@@H]12 [Example 22, (2S,4aS,6aS,6bR,8aR,12aS,14aS,14bR)—N-benzyl-11-cyano-14a-hydroxy-2,4a,6a,6b,9,9,12a-heptamethyl-10,14-dioxo-1,2,3,4,4a,5,6,6a,6b,7,8,8a,9,10,12a,14,14a,14b-octadecahydropicene-2-carboxamide]",27.1 nM
16,"COCC(COC)NC(=O)[C@@]1(C)CC[C@]2(C)CC[C@@]3(C)[C@]4(C)CC[C@H]5C(C)(C)C(=O)C(C#N)=C[C@]5(C)C4=CC(=O)[C@]3(O)[C@@H]2C1 [Example 23, (2S,4aS,6aS,6bR,8aR,12aS,14aS,14bR)-11-cyano-N-(1,3-dimethoxypropan-2-yl)-14a-hydroxy-2,4a,6a,6b,9,9,12a-heptamethyl-10,14-dioxo-1,2,3,4,4a,5,6,6a,6b,7,8,8a,9,10,12a,14,14a,14b-octadecahydropicene-2-carboxamide]",10.8 nM
